# According to patent US20140187548A1, “6 SUBSTITUTED IMIDAZOPYRAZINES FOR USE AS MPS-1 AND TKK INHIBITORS IN THE TREATMENT OF HYPERPROLIFERATIVE DISORDERS” (BAYER INTELLECTUAL PROPERTY GMBH, priority 2010, published 2014):
# Biological target: T1, human kinase Mps-1 (Homo sapiens, UniProt P33981)
# T1 construct: N-terminally GST-tagged human full length recombinant Mps-1 kinase; GST (N); purchased Invitrogen, Karslruhe, Germany PV4071
# T1 sequence (P33981 1-857): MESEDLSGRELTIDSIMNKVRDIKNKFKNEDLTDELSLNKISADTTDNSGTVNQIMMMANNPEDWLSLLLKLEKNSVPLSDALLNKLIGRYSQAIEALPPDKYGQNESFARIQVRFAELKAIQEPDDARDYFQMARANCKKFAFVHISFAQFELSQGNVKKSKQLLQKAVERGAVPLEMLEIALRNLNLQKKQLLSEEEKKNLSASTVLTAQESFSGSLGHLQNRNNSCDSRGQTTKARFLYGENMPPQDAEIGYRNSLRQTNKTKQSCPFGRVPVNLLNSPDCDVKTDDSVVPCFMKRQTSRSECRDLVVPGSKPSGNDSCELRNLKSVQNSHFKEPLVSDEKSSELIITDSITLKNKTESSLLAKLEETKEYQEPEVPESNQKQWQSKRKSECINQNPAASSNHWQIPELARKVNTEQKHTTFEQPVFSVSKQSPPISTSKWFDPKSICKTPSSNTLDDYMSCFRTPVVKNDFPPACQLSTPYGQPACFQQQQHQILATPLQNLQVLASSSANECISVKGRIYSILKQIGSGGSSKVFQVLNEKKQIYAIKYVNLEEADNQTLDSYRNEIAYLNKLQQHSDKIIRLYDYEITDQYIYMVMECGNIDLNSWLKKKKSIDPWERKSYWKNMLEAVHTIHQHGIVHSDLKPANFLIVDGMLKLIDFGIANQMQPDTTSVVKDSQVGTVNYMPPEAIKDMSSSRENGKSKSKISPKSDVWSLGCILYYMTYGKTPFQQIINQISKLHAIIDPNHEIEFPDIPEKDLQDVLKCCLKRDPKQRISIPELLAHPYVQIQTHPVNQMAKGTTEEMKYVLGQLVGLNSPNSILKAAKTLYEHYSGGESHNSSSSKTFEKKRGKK
# Test: Mps-1 kinase assay (TR-FRET)
# Format: biochemical
# Settings: N-terminally GST-tagged human full length recombinant Mps-1; 10 μM ATP; 1 μM peptide substrate; 15 min pre-incubation; 60 min at 22° C.
# Procedure, shortened: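 TR-FRET read-out: after 1 h binding at 22° C, Eu-labelled anti-phospho-Ser/Thr antibody transfers to SA-XLent on the phosphorylated biotinylated peptide. The enzyme is GST-tagged full-length human Mps-1, typically about 1 nM final, in the linear range.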
row,Compound,IC50
1,"O=C(NC1CC1)c1ccc(-c2cnc3c(NCc4ccc(C(F)(F)F)cc4)nc(-c4ccccc4)cn23)cc1 [Example 2-20, N-cyclopropyl-4-(6-phenyl-8-{[4-(trifluoromethyl)benzyl]amino}imidazo[1,2-a]pyrazin-3-yl)benzamide]",38.6 nM
2,"O=C(NC1CC1)c1ccc(-c2cnc3c(NCc4ccc(OC(F)(F)F)cc4)nc(-c4ccccc4)cn23)cc1 [Example 2-22, N-cyclopropyl-4-(6-phenyl-8-{[4-(trifluoromethoxy)benzyl]amino}imidazo[1,2-a]pyrazin-3-yl)benzamide]",217 nM
3,"O=C(NC1CC1)c1ccc(-c2cnc3c(NCCN4CCCC4)nc(-c4ccccc4)cn23)cc1 [Example 2-25, N-cyclopropyl-4-(6-phenyl-8-{[2-(pyrrolidin-1-yl)ethyl]amino}imidazo[1,2-a]pyrazin-3-yl)benzamide]",27.4 nM
4,"CCN(CC)CCCNc1nc(-c2ccccc2)cn2c(-c3ccc(C(=O)NC4CC4)cc3)cnc12 [Example 2-29, N-cyclopropyl-4-(8-{[3-(diethylamino)propyl]amino}-6-phenylimidazo[1,2-a]pyrazin-3-yl)benzamide]",14.8 nM
5,"NC(=O)CNc1nc(-c2ccccc2)cn2c(-c3ccc(C(=O)NC4CC4)cc3)cnc12 [Example 2-30, 4-{8-[(2-amino-2-oxoethyl)amino]-6-phenylimidazo[1,2-a]pyrazin-3-yl}-N-cyclopropyl-benzamide]",19 nM
6,"O=C(NC1CC1)c1ccc(-c2cnc3c(NCCCc4ccccc4)nc(-c4ccccc4)cn23)cc1 [Example 2-31, N-cyclopropyl-4-{6-phenyl-8-[(3-phenylpropyl)amino]imidazo[1,2-a]pyrazin-3-yl} benzamide]",34.8 nM
7,"CN(C)CCNc1nc(-c2ccccc2)cn2c(-c3ccc(C(=O)NC4CC4)cc3)cnc12 [Example 2-34, N-cyclopropyl-4-(8-{[2-(dimethylamino)ethyl]amino}-6-phenylimidazo[1,2-a]pyrazin-3-yl)benzamide]",35.7 nM
8,"O=C(NC1CC1)c1ccc(-c2cnc3c(NCCCN4CCCC4)nc(-c4ccccc4)cn23)cc1 [Example 2-36, N-cyclopropyl-4-(6-phenyl-8-{[3-(pyrrolidin-1-yl)propyl]amino}imidazo[1,2-a]pyrazin-3-yl)benzamide]",28.4 nM
9,"CCN(CC)CCCCNc1nc(-c2ccccc2)cn2c(-c3ccc(C(=O)NC4CC4)cc3)cnc12 [Example 2-37, N-cyclopropyl-4-(8-{[4-(diethylamino)butyl]amino}-6-phenylimidazo[1,2-a]pyrazin-3-yl)benzamide]",14.1 nM
10,"CN(C)CCCCNc1nc(-c2ccccc2)cn2c(-c3ccc(C(=O)NC4CC4)cc3)cnc12 [Example 2-38, N-cyclopropyl-4-(8-{[4-(dimethylamino)butyl]amino}-6-phenylimidazo[1,2-a]pyrazin-3-yl)benzamide]",13.2 nM
11,"O=C(NC1CC1)c1ccc(-c2cnc3c(NCCc4cccs4)nc(-c4ccccc4)cn23)cc1 [Example 2-39, N-cyclopropyl-4-(6-phenyl-8-{[2-(thiophen-2-yl)ethyl]amino}imidazo[1,2-a]pyrazin-3-yl)benzamide]",19.4 nM
12,"CN(C)c1ccc(CNc2nc(-c3ccccc3)cn3c(-c4ccc(C(=O)NC5CC5)cc4)cnc23)cc1 [Example 2-44, N-cyclopropyl-4-(8-{[4-(dimethylamino)benzyl]amino}-6-phenylimidazo[1,2-a]pyrazin-3-yl)benzamide]",18.1 nM

# Stronger by IC50, values ahead:
row,IC50,Compound
1,10.3 nM,"O=C(NC1CC1)c1ccc(-c2cnc3c(NCCc4ccccn4)nc(-c4ccccc4)cn23)cc1 [Example 2-24, N-cyclopropyl-4-(6-phenyl-8-{[2-(pyridin-2-yl)ethyl]amino}imidazo[1,2-a]pyrazin-3-yl) benzamide]"
2,9.8 nM,"O=C(NC1CC1)c1ccc(-c2cnc3c(NCCOc4ccccc4)nc(-c4ccccc4)cn23)cc1 [Example 2-40, N-cyclopropyl-4-{8-[(2-phenoxyethyl)amino]-6-phenylimidazo[1,2-a]pyrazin-3-yl}benzamide]"
3,9.1 nM,"NS(=O)(=O)c1ccc(CCNc2nc(-c3ccccc3)cn3c(-c4ccc(C(=O)NC5CC5)cc4)cnc23)cc1 [Example 2-21, N-cyclopropyl-4-(6-phenyl-8-{[2-(4-sulfamoylphenyl)ethyl]amino}imidazo[1,2-a]pyrazin-3-yl)benzamide]"
4,8.1 nM,"CC(=O)NCCNc1nc(-c2ccccc2)cn2c(-c3ccc(C(=O)NC4CC4)cc3)cnc12 [Example 2-19, 4-(8-{[2-(acetylamino)ethyl]amino}-6-phenylimidazo[1,2-a]pyrazin-3-yl)-N-cyclopropyl-benzamide]"
5,5.8 nM,"O=C(NC1CC1)c1ccc(-c2cnc3c(NCc4ccc5c(c4)OCO5)nc(-c4ccccc4)cn23)cc1 [Example 2-32, 4-{8-[(1,3-benzodioxol-5-ylmethyl)amino]-6-phenylimidazo[1,2-a]pyrazin-3-yl}-N-cyclopropyl-benzamide]"
6,5.6 nM,"NS(=O)(=O)c1ccc(CNc2nc(-c3ccccc3)cn3c(-c4ccc(C(=O)NC5CC5)cc4)cnc23)cc1 [Example 2-26, N-cyclopropyl-4-{6-phenyl-8-[(4-sulfamoylbenzyl)amino]imidazo[1,2-a]pyrazin-3-yl}benzamide]"
7,5.5 nM,"O=C(NC1CC1)c1ccc(-c2cnc3c(NCCc4ccncc4)nc(-c4ccccc4)cn23)cc1 [Example 2-41, N-cyclopropyl-4-(6-phenyl-8-{[2-(pyridin-4-yl)ethyl]amino}imidazo[1,2-a]pyrazin-3-yl) benzamide]"
8,5 nM,"NC(=O)CCNc1nc(-c2ccccc2)cn2c(-c3ccc(C(=O)NC4CC4)cc3)cnc12 [Example 2-42, 4-{8-[(3-amino-3-oxopropyl)amino]-6-phenylimidazo[1,2-a]pyrazin-3-yl}-N-cyclopropyl-benzamide]"
9,3.3 nM,"O=C(NC1CC1)c1ccc(-c2cnc3c(NCc4ccccn4)nc(-c4ccccc4)cn23)cc1 [Example 2-27, N-cyclopropyl-4-{6-phenyl-8-[(pyridin-2-ylmethyl)amino]imidazo[1,2-a]pyrazin-3-yl} benzamide]"
10,2.7 nM,"O=C(NC1CC1)c1ccc(-c2cnc3c(NCC4CC4)nc(-c4ccccc4)cn23)cc1 [Example 2-23, N-cyclopropyl-4-{8-[(cyclo-propylmethyl)amino]-6-phenylimidazo[1,2-a]pyrazin-3-yl}benzamide]"
11,2.3 nM,"COC(=O)CCNc1nc(-c2ccccc2)cn2c(-c3ccc(C(=O)NC4CC4)cc3)cnc12 [Example 2-33, methyl N-{3-[4-(cyclopropylcarbamoyl)phenyl]-6-phenylimidazo[1,2-a]pyrazin-8-yl}-beta-alaninate]"
12,2.2 nM,"O=C(NC1CC1)c1ccc(-c2cnc3c(NCc4cccnc4)nc(-c4ccccc4)cn23)cc1 [Example 2-28, N-cyclopropyl-4-{6-phenyl-8-[(pyridin-3-ylmethyl)amino]imidazo[1,2-a]pyrazin-3-yl} benzamide]"
13,1.1 nM,"O=C(NC1CC1)c1ccc(-c2cnc3c(NCCC(F)(F)F)nc(-c4ccccc4)cn23)cc1 [Example 2-43, N-cyclopropyl-4-{6-phenyl-8-[(3,3,3-trifluoropropyl)amino]imidazo[1,2-a]pyrazin-3-yl} benzamide]"
14,1 nM,"N#CCCNc1nc(-c2ccccc2)cn2c(-c3ccc(C(=O)NC4CC4)cc3)cnc12 [Example 2-35, 4-{8-[(2-cyanoethyl)amino]-6-phenylimidazo[1,2-a]pyrazin-3-yl}-N-cyclopropyl-benzamide]"
